Assay results as given in patent US9884037B2, “Pharmaceutical composition containing 8 triglycerides, and preparations and use thereof” (ZHEJIANG KANGLAITE GROUP CO., LTD., priority 2014, dated 2018).
Converted amounts (≈) assume the structure as drawn.

How the values were obtained:
[1] = tested on: NK cells; test: Activity of natural killer cells (NK cells) in mice in vitro (inhibition on 3H-TdR incorporation, YAC-1 target cells); type: cell-based, C57BL/6 mice; details: 100 μl; for CPM (x ± SD): Splenocytes:YAC-1=100:1, 24 h
Experimental: Method: The activity of NK cells were detected by the inhibition on ^3H-TdR incorporation.
Spleens were picked up from C57BL/6 mice in aseptic condition. Splenocytes, as effector cells, were adjusted to 1×10^6 cells/ml. YAC-1 cells, target cells, which have been cultured for 24 h, were adjusted to 1×10^4 cells/ml. The cells were added into wells of a 96 well microplate (100 μl/well). The experiment groups were as follows: the injection of the invention in four concentrations, lentinan (positive control group) in four concentrations, corresponding solvent (blank control I) and medium (blank control II). To each well of a 96 well microplate were added cells (Splenocytes: YAC-1=100:1) (100 μl), test sample (100 μl) and ^3H-TdR 0.5 μci/well. After being incubated in a 37° C. incubator under 5% CO2 for 24 h, cells were collected, and CPM values were determined. The specific percentage inhibition (Pi), indicating the activity of NK cells, was calculated according to the formula: Pi=(1−CPMExp./CPMcont.)×100%

[2] = tested on: splenocytes of mice bearing L1210 leukemia cells; test: Splenic lymphopoiesis in mice bearing L1210 leukemia cells; type: in vivo, DBA/2 mice; details: 20 mg/kg, iv × 7, mice bearing L1210
Experimental: Each of 60 DBA/2 mice was inoculated subcutaneously with 1×10^4 L1210 leukemia cells of mice. Next day, the mice were grouped randomly into 6 groups (10 mice per group): Lentinan 20 mg/kg, the injection of the invention (6.25 ml/kg, 12.5 ml/kg and 25 ml/kg), solvent control and NS control. Animals were administered, i.v., for 7 days, then sacrificed. Spleens were picked up in aseptic condition. Spleens were homogenized and splenocytes were counted and adjusted into 1×10^7/ml. Cells (100 μl/well) and medium (100 μl/well) were added into wells of a 96 well microplate in triplicate. The 96 well microplate was incubated in a 37° C. incubator under 5% CO2 for 48 h. Then, ^3H-TdR (0.5 μci/well) was added and the incubation was continued for 20 h. Cells were collected, and CPM values were determined and compared with control groups. […] Lentinan has also shown immuno-enhancement effect.

[3] = tested on: Splenocytes; test: Splenic lymphopoiesis induced by ConA in mice in vitro (3H-TdR incorporation); type: cell-based, C57BL/6 mice; details: 100 μl
Experimental: Spleens were picked up from C57BL/6 mice in aseptic condition. Splenocytes were separated and the concentration of cells was adjusted to 1×10^7 cells/ml with RPMI 1640+15% FCS medium. The experiment groups were as follows: the injection of the invention in four concentrations, lentinan (positive control group) in four concentrations, corresponding solvent (blank control I) and medium (blank control II). 100 μl Cells, 100 μl solution of drug/control and 50 μl ConA were added in each well in triplicate. The 96 well microplate was incubated in a 37° C. incubator under 5% CO2 for 48 h. ^3H-TdR (0.5 μci/well) was added and the incubation was continued for 20 h. Cells were collected, and CPM values were determined in a liquid scintillation counter and compared with control groups. It is shown in the results (table 3) that the injection of the invention, as same as lentinan, has obviously facilitated the splenic lymphopoiesis in mice in vitro and the effect is linear dependent to the concentration.

[4] = tested on: IL-2; test: Production of IL-2 in mice bearing cancer (L1210), IL-2 dependent CTLL cell strain; type: in vivo, DBA/2 mice; details: 20 mg/kg, iv × 7, mice suffering from L1210 leukemia
Experimental: Each of 60 DBA/2 mice was inoculated subcutaneously with 1×10^4 L1210 leukemia cells of mice. Next day, the mice were grouped randomly into 6 groups (10 mice per group): Lentinan 20 mg/kg, the injection of the invention (6.25 ml/kg, 12.5 ml/kg and 25 ml/kg), solvent control and NS control. Animals were administered, i.v., for 7 days, then sacrificed. Spleens were picked up in aseptic condition. Splenocytes were prepared and adjusted into 1×10^7/ml. To each well of a 24 well plate were added splenocytes cells (2 ml) and Con A (5 μg/ml). After the plate was incubated in a 37° C. incubator under 5% CO2 for 24 h, the supernate was collected. The activity of IL-2 was determined in IL-2 dependent CTLL cell strain by using the method of ^3H-TdR incorporation.

[5] = tested on: NK cells; test: Activity of NK cells in mice bearing cancer (L1210); type: in vivo, DBA/2 mice; details: 20 mg/kg, iv × 7, mice bearing L1210
Experimental: Each of 60 DBA/2 mice was inoculated subcutaneously with 1×10^4 L1210 leukemia cells of mice. Next day, the mice were grouped randomly into 6 groups (10 mice per group): Lentinan 20 mg/kg (positive control), the injection of the invention (6.25 ml/kg, 12.5 ml/kg and 25 ml/kg), solvent control and NS control. Animals were administered, i.v., for 7 days, then sacrificed. Spleens were picked up in aseptic condition. Splenocytes were prepared and adjusted into 1×10^6/ml. The activity of NK cells was detected by using the inhibition on ^3H-TdR incorporation. To wells of a 96 well microplate were added splenocytes cells (effector cells) 100 μl/well, YAC-1 cells (target cells, 1×10^4 cells/ml) 100 μl/well and ^3H-TdR 0.5 μci/well, in triplicate. After being incubated in a 37° C. incubator under 5% CO2 for 24 h, cells were collected, and CPM values were determined. The specific percentage inhibition (Pi), indicating the activity of NK cells, was calculated according to the above formula.

[6] = tested on: Bcap-37 (human breast cancer cells); test: Inhibition on human tumor cell lines in MTT method in vitro; type: cell-based; details: Bcap37, Bcap-37, MTT, 48 h
Text: (§1) Experimental Materials and the Preparation Thereof: • (1) Cell lines: PANC-1 (human pancreatic cancer cells), SKOV3 (human ovarian cancer cells), MCF-7 (human breast cancer cells), Bcap-37 (human breast cancer cells), SMMC-7721 (human hepatic cancer cells), HepG-2 (human hepatic cancer cells), A549 (human lung cancer cells) and H460 (human lung cancer cells), storaged and passaged maintainably in Research and Evaluation Center for Pharmacology, Shanghai Institute of Pharmaceutical Industry; • (2) DMEM complete medium supplied with 10% newborn calf serum (GIBCO BRL), 1% of penicillin (100 U/mL)+streptomycin (100 μg/mL); • (3) 0.25% trypsin solution, purchased from Invitrogen Corp. and storaged at −20° C.; • (4) Phosphate buffer (PBS): NaCl 8 g, KCl 0.2 g, Na2HPO4 1.15 g and KH2PO4 0.2 g, dissolved in 1 L double-distilled water and autoclaved at 121° C. for 20 min, then storaged at 4° C.; • (5) MTT (AMRESCO) solution: 5 mg/ml in PBS; • (6) Formazan crystal dissolving solution: SDS 10 g, isobutanol 5 ml and concentrated hydrochloric acid 0.1 ml, dissolved in 100 ml of deionized double distilled water.
(§2) The inhibition effects of samples on the above-mentioned cell lines were detected by using MTT method. The specific procedures were as follows:
(§3) (1) Cell culture: (a) Storaged cells were taken out from the liquid nitrogen, thawed quickly in a 37° C. water bath, then aseptically transferred into 6 ml of cellular medium in a 10 ml centrifugal tube, and centrifuged at 1000 rpm for 5 min. The supernatant was discarded, then the precipitated cells were re-suspensed in 5-6 ml cellular media by pipetting and transferred into a flask in a 37° C. incubator for cell culture; (b) Next day, the flask was taken out from the incubator and the used medium was discarded, then the cells were incubated in 5-6 ml fresh medium in the 37° C. incubator; (c) On the third day, the flask was taken out from the incubator and the used medium was discarded, then 2-3 ml of PBS (pH7.4) was added into the flask with rocking for cleaning it and the used PBS was discarded. Such a cellular cleaning step was repeated once again. 3-5 drops of 0.25% trypsin solution were added into the flask with sloshing, thus well-distributed in it. The flask was capped and placed in a 37° C. incubator for about 3 min, and the separation of cells from the flask wall was observed under the microscope. […]
(§4) (4) Cells in a logarithmic growth stage were trypsinized and washed, then re-suspended in the medium containing 10% calf serum. The number of living cells was counted in Trypan blue dye exclusion method and cell suspensions were adjusted into a density of 2×10^5 cell/ml. […]

[7] = tested on: PANC-1 (human pancreatic cancer cells); test: as above; type: cell-based; details: PANC-1, MTT, 48 h
Text: as §1, §2, §3, §4

[8] = tested on: SMMC-7721 (human hepatic cancer cells); test: as above; type: cell-based; details: SMMC-7721, MTT, 48 h
Text: as §1, §2, §3, §4

[9] = tested on: H460 (human lung cancer cells); test: as above; type: cell-based; details: NCI-H460, 48 h
Text: as §1, §2, §3, §4

Row | Compound | Pi % (specific percentage inhibition, activity of NK cells) ([1]; (1:1) dilution) [%] | CPM (x ± SD) ([1]; (1:1) dilution) [CPM] | Pi % (specific percentage inhibition, activity of NK cells) ([1]; (1:2) dilution) [%] | CPM (x ± SD) ([1]; (1:2) dilution) [CPM] | Pi % (specific percentage inhibition, activity of NK cells) ([1]; (1:4) dilution) [%] | CPM (x ± SD) ([1]; (1:4) dilution) [CPM] | Pi % (specific percentage inhibition, activity of NK cells) ([1]; (stock solution)) [%] | CPM (x ± SD) ([1]; (stock solution)) [CPM] | CPM (x ± SD) [2] [CPM] | CPM (x ± SD) ([3]; (1:1) dilution) [CPM] | CPM (x ± SD) ([3]; (1:2) dilution) [CPM] | CPM (x ± SD) ([3]; (1:4) dilution) [CPM] | CPM (x ± SD) ([3]; (stock solution)) [CPM] | CPM (x ± SD) (production of IL-2) [4] [CPM] | CPM (x ± SD) [5] [CPM] | Pi (%) (activity of NK cells) [5] | IC50 [6] [µg/mL] | IC50 [7] [µg/mL] | IC50 [8] [µg/mL] | IC50 [9] [µg/mL]
1 | Lentinan | 33.5 | 8130 ± 930 | 35.5 | 7892 ± 995 | 54.5 | 5544 ± 85 | 29.5 | 8625 ± 1135 | 7410 ± 770 | 7700 ± 747 | 11025 ± 1133 | 11555 ± 1279 | 7420 ± 957 | 2750 ± 123 | 5660 ± 260 | 54.5 | – | – | – | –
2 | CC(=O)O[C@H]1C(=O)[C@@]2(C)[C@H]([C@H](OC(=O)c3ccccc3)[C@]3(O)C[C@H](OC(=O)[C@H](O)[C@@H](NC(=O)c4ccccc4)c4ccccc4)C(C)=C1C3(C)C)[C@]1(OC(C)=O)CO[C@@H]1C[C@@H]2O [Taxol] | – | – | – | – | – | – | – | – | – | – | – | – | – | – | – | – | 0.28 (≈ 0.328 µM) | 0.44 (≈ 0.515 µM) | 0.41 (≈ 0.48 µM) | 0.49 (≈ 0.574 µM)
